Reference: US20100009852A1, “Plant growth regulator” (priority 2008, published 2010)
Values joined by “and” are separate entries in the source; they are usually repeats but may differ in a detail not shown here. Equal entries are not always repeated.

Assays:
[1] = system: maize (Zea mays—variety Oldham); assay: Root growth promotion: maize germination in a soil free test system; assay type: in vivo; conditions: for Fresh weight of harvested roots, Mean of 4 replicates / Fresh weight of harvested roots, single replicate: 13 days after sowing, Blank WP mean 317; for Fresh weight of harvested roots, single replicate: roots of 10 seeds per container
Method: 8 cm round filter papers were placed in 9.5 cm square clear plastic tissue culture containers (ICN Biomedicals, Inc). The paper in each of 4 containers were wetted with 2 ml of tap water containing 2500, 1250 or 625 ppm of cyprosulfamide provided as a 20% wettable powder formulation (WP). 4 further containers were wetted with tap water containing blank WP formulation (i.e. all components except cyprosulfamide). Into each Petri dish 10 seeds of maize (Zea mays—variety Oldham) were evenly spread and the lids put in place. The Petri dishes were placed in glasshouse set to 24° C.±2° C. day and 17° C.±2° C. night. High-pressure mercury lamps (400 W) were used to augment daylight during cloudy conditions. As required, small volumes of water were added to the Petri dishes as necessary to keep the filter paper moist. After 13 days the roots from all seeds per container were harvested by cutting as close to the base as possible. The fresh weight of roots was measured immediately.

[2] = system: maize varieties (Cecilia and Abraxas); assay: Shoot growth regulation: glasshouse pot trial, plant height of 2 maize varieties; assay type: in vivo; conditions: for Mean plant height per pot, Mean of 8 replicates / Mean plant height per pot, single replicate: 25 days after sowing
Method: Three cyprosulfamide treatment methods (1 to 3) were used in a trial designed to investigate effects on shoot development. Treatment method 1 was a seed treatment. For this, fifty seeds each of two maize varieties ([…] and Abraxas) were weighed and placed into each of 50 ml glass screw cap bottles. To one of these bottles sufficient wettable powder formulation of cyprosulfamide (20% formulation) was added to provide 1 g of cyprosulfamide per 1000 g of seed. To the second bottle the same amount of a blank formulation (same components but lacking cyprosulfamide) was added. To each bottle 10 ml of deionised water was added the caps fitted. The bottles were then placed on a shaker for 20 minutes so that the seeds were evenly coated with the formulation. For methods 2 and 3, 240 peat pots (7 cm diameter) were filled to within 3 cm of the top with steam sterilised sandy-loam soil (20% sand, 57% silt, 23% clay, pH 6.8 and 1.4% organic matter). In addition, 120 Petri dishes (10 cm diameter) were filled (1 cm depth) with the same soil. The 20% wettable powder formulation of cyprosulfamide was dispersed in de-ionised water to produce the required concentration (ppm). 120 pots (Treatment 2) and the all 120 Petri dishes (Treatment 3) were placed on “feed-belt” of a track-sprayer. The spray solution of cyprosulfamide was placed into the spray vessel and applied to the target pots/dishes at a spray volume of 300 l/ha via a flat fan nozzle. This provided a dose rate equivalent to 1000 g of cyprosulfamide per hectare soil surface. For treatment method 1, five treated maize seed were sown onto 8 replicate untreated pots and covered with untreated soil. For treatment method 2, five untreated seeds were sown onto 8 replicate treated pots and covered with untreated soil. For treatment method 3, five untreated seeds were sown onto 8 replicate untreated pots and covered using the treated soil from the Petri dishes. Control (Treatment 4) had also untreated seeds on untreated soil. The placement of cyprosulfamide as a result of these treatment methods is shown in FIG. 1 All the pots were watered and placed in a glasshouse set to 24° C.±2° C. day and 17° C.±2° C. night. The relative humidity was normally above 60%. High-pressure mercury lamps (400 W) were used to augment daylight during cloudy conditions. Pots were watered as required. 25 days after sowing the height of each plant was measured from soil surface to tip of tallest leaf which was held up against a ruler.

[3] = variety Abraxas, treatment 1 = seed treatment, 1 g per 1000 g seed, untreated mean 36.0
[4] = variety Abraxas, treatment 2 = soil below seed, 1000 g per hectare, untreated mean 36.0
[5] = variety Abraxas, treatment 3 = soil above seed, 1000 g per hectare, untreated mean 36.0
[6] = variety Cecilia, treatment 1 = seed treatment, 1 g per 1000 g seed, untreated mean 55.3
[7] = variety Cecilia, treatment 2 = soil below seed, 1000 g per hectare, untreated mean 55.3
[8] = variety Cecilia, treatment 3 = soil above seed, 1000 g per hectare, untreated mean 55.3

COc1ccccc1C(=O)NS(=O)(=O)c1ccc(C(=O)NC2CC2)cc1 [cyprosulfamide]
Fresh weight of harvested roots, Mean of 4 replicates ([1]; WP + 625 ppm a.i.): 620 mg
Fresh weight of harvested roots, single replicate ([1]; WP + 625 ppm a.i.): 587 mg and 579 mg and 547 mg and 767 mg
Fresh weight of harvested roots, Mean of 4 replicates ([1]; WP + 1250 ppm a.i.): 838 mg
Fresh weight of harvested roots, single replicate ([1]; WP + 1250 ppm a.i.): 700 mg and 717 mg and 846 mg and 1087 mg
Fresh weight of harvested roots, Mean of 4 replicates ([1]; WP + 2500 ppm a.i.): 778 mg
Fresh weight of harvested roots, single replicate ([1]; WP + 2500 ppm a.i.): 918 mg and 1211 mg and 634 mg and 350 mg
root development of germinating maize seed ([1]; in the presence of cyprosulfamide (625-2500 ppm) versus blank WP): significantly enhanced
effect on plant height (statistical analysis) ([2]; all treatments (1 to 3) versus untreated, in Cecilia and Abraxas): significantly reduced plant height
Mean plant height per pot, Mean of 8 replicates [2, 3]: 26.3 cm
Mean plant height per pot, single replicate [2, 3]: 28.2 cm and 20.8 cm and 31.6 cm and 22.6 cm and 25.2 cm and 22.2 cm and 28.8 cm and 30.6 cm
Mean plant height per pot, Mean of 8 replicates [2, 4]: 33.4 cm
Mean plant height per pot, single replicate [2, 4]: 34.2 cm and 34.5 cm and 34.4 cm and 33.4 cm and 32.2 cm and 33.6 cm and 30.5 cm and 34.6 cm
Mean plant height per pot, Mean of 8 replicates [2, 5]: 30.4 cm
Mean plant height per pot, single replicate [2, 5]: 25.2 cm and 26.6 cm and 29.6 cm and 32.2 cm (2×) and 31.4 cm and 32.8 cm and 33.0 cm
Mean plant height per pot, Mean of 8 replicates [2, 6]: 41.2 cm
Mean plant height per pot, single replicate [2, 6]: 34.3 cm and 40.7 cm and 50.0 cm and 38.3 cm and 39.3 cm and 44.0 cm and 41.0 cm and 41.7 cm
Mean plant height per pot, Mean of 8 replicates [2, 7]: 44.4 cm
Mean plant height per pot, single replicate [2, 7]: 46.0 cm (2×) and 50.0 cm and 48.2 cm and 42.8 cm and 41.7 cm and 40.6 cm and 40.3 cm
Mean plant height per pot, Mean of 8 replicates [2, 8]: 47.8 cm
Mean plant height per pot, single replicate [2, 8]: 43.0 cm and 54.0 cm and 47.6 cm and 47.0 cm and 55.5 cm and 58.0 cm and 36.8 cm and 40.8 cm
